Patent USRE48335E1, “Polymyxin derivatives as antimicrobial compounds” (priority 2014, dated 2020)
Converted amounts (≈) assume the structure as drawn. Read-outs that look alike come from different tables or passages of the source. Positions of bridges follow the written chain, without caps; N, C: chain ends. Non-standard residues stand in square brackets, D forms with d. Residues, ends and D or L forms follow the SMILES beside them. *: point of attachment. Benzoyl(4-Ph) = O=C(c1ccc(-c2ccccc2)cc1)*; Lauroyl = CCCCCCCCCCCC(=O)*; Decanoyl = CCCCCCCCCC(=O)*; Nonanoyl = CCCCCCCCC(=O)*; Heptanoyl = CCCCCCC(=O)*; Octanoyl = CCCCCCCC(=O)*; Orn = NCCC[C@H](N)C(=O)O; Dab = NCC[C@H](N)C(=O)O; Dap = NC[C@H](N)C(=O)O; PhAc = O=C(Cc1ccccc1)*

Tests used:
[1] = tested on: Pseudomonas aeruginosa
Method: (§1) MICs of the lipopeptides (trifluoroacetic acid salt, TFA) were determined by broth microdilution in cation-adjusted Mueller-Hinton broth (CAMHB) (Oxoid Australia, Thebarton, SA, Australia) according to Clinical and Laboratory Standards Institute standards (Clinical and Laboratory Standards Institute. Performance standards for antimicrobial susceptibility testing; eighteenth informational supplement M100-S18. Wayne, Pa., 2008). Polymyxin B (sulphate) was employed as control. […]

[2] = tested on: Enterobacter cloacae
Method: as §1

[3] = tested on: Acinetobacter baumannii
Method: as §1

Row | SMILES | Minimum inhibitory concentration, Pa ATCC 27853 [1] [µg/mL] | Minimum inhibitory concentration, Pa FADDI-PA022 [1] [µg/mL] | Minimum inhibitory concentration, Pa FADDI-PA025 [1] [µg/mL] | Minimum inhibitory concentration, Ec FADDI-EC001 [2] [µg/mL] | Minimum inhibitory concentration, Ec FADDI-EC003 [2] [µg/mL] | Minimum inhibitory concentration, Ec FADDI-EC006 [2] [µg/mL] | Minimum inhibitory concentration, Ab A ATCC 17978 [3] [µg/mL] | Minimum inhibitory concentration, Ab ATCC 19606 [3] [µg/mL] | Minimum inhibitory concentration, Ab FADDI-AB034 [3] [µg/mL] | Minimum inhibitory concentration, Pa ATCC 27853 ([1]; Pseudomonas aeruginosa ATCC 27853, broth microdilution in CAMHB) [µg/mL] | Minimum inhibitory concentration, Pa FADDI-PA022 ([1]; Pseudomonas aeruginosa FADDI-PA022, broth microdilution in CAMHB) [µg/mL] | Minimum inhibitory concentration, Pa FADDI-PA025 ([1]; Pseudomonas aeruginosa FADDI-PA025, broth microdilution in CAMHB) [µg/mL] | Minimum inhibitory concentration, Ec FADDI-EC001 ([2]; Enterobacter cloacae FADDI-EC001, broth microdilution in CAMHB) [µg/mL] | Minimum inhibitory concentration, Ec FADDI-EC003 ([2]; Enterobacter cloacae FADDI-EC003, broth microdilution in CAMHB) [µg/mL] | Minimum inhibitory concentration, Ec FADDI-EC006 ([2]; Enterobacter cloacae FADDI-EC006, broth microdilution in CAMHB) [µg/mL] | Minimum inhibitory concentration, Ab A ATCC 17978 ([3]; Acinetobacter baumannii ATCC 17978, broth microdilution in CAMHB) [µg/mL] | Minimum inhibitory concentration, Ab ATCC 19606 ([3]; Acinetobacter baumannii ATCC 19606, broth microdilution in CAMHB) [µg/mL] | Minimum inhibitory concentration, Ab FADDI-AB034 ([3]; Acinetobacter baumannii FADDI-AB034, broth microdilution in CAMHB) [µg/mL]
1 | CCCCCCCCCC(=O)N[C@@H](CCN)C(=O)N[C@H](C(=O)N[C@H](CO)C(=O)N[C@H]1CCNC(=O)[C@H]([C@@H](C)O)NC(=O)[C@H](CCN)NC(=O)[C@H](CCN)NC(=O)[C@H]([C@@H](C)O)NC(=O)[C@@H](CC(C)C)NC(=O)[C@H](CCN)NC1=O)[C@@H](C)O [Compound 9] (Decanoyl-[Dab]T[dS][Dab][Dab][dL]T[Dab][Dab]T; lactam 4-C) | 4 (≈ 3.45 µM) | 8 (≈ 6.91 µM) | 32 (≈ 27.6 µM) | 0.5 (≈ 0.432 µM) | 1 (≈ 0.863 µM) | 1 (≈ 0.863 µM) | 1 (≈ 0.863 µM) | 0.25 (≈ 0.216 µM) | 0.5 (≈ 0.432 µM) | – | – | – | – | – | – | – | – | –
2 | CCCCCCCCCCCC(=O)N[C@@H](CCN)C(=O)N[C@H](C(=O)N[C@H](CO)C(=O)N[C@H]1CCNC(=O)[C@H]([C@@H](C)O)NC(=O)[C@H](CCN)NC(=O)[C@H](CCN)NC(=O)[C@H]([C@@H](C)O)NC(=O)[C@@H](CC(C)C)NC(=O)[C@H](CCN)NC1=O)[C@@H](C)O [Compound 10] (Lauroyl-[Dab]T[dS][Dab][Dab][dL]T[Dab][Dab]T; lactam 4-C) | 2 (≈ 1.69 µM) | 4 (≈ 3.37 µM) | 4 (≈ 3.37 µM) | 1 (≈ 0.843 µM) | 0.5 (≈ 0.421 µM) | 1 (≈ 0.843 µM) | 0.5 (≈ 0.421 µM) | 1 (≈ 0.843 µM) | 1 (≈ 0.843 µM) | – | – | – | – | – | – | – | – | –
3 | CC(C)C[C@H]1NC(=O)[C@H](CCN)NC(=O)[C@@H](NC(=O)[C@@H](CO)NC(=O)[C@@H](NC(=O)[C@H](CCN)NC(=O)c2ccc(-c3ccccc3)cc2)[C@@H](C)O)CCNC(=O)[C@H]([C@@H](C)O)NC(=O)[C@H](CCN)NC(=O)[C@H](CCN)NC(=O)[C@H]([C@@H](C)O)NC1=O [Compound 11] ({Benzoyl(4-Ph)}-[Dab]T[dS][Dab][Dab][dL]T[Dab][Dab]T; lactam 4-C) | 4 (≈ 3.38 µM) | 4 (≈ 3.38 µM) | 32 (≈ 27 µM) | 0.5 (≈ 0.422 µM) | 0.5 (≈ 0.422 µM) | 0.5 (≈ 0.422 µM) | 0.5 (≈ 0.422 µM) | 2 (≈ 1.69 µM) | 1 (≈ 0.844 µM) | – | – | – | – | – | – | – | – | –
4 | CC(C)C[C@H]1NC(=O)[C@H](CCN)NC(=O)[C@@H](NC(=O)[C@@H](CO)NC(=O)[C@@H](NC(=O)[C@H](CCN)NC(=O)Cc2ccccc2)[C@@H](C)O)CCNC(=O)[C@H]([C@@H](C)O)NC(=O)[C@H](CCN)NC(=O)[C@H](CCN)NC(=O)[C@H]([C@@H](C)O)NC1=O [Compound 12] (PhAc-[Dab]T[dS][Dab][Dab][dL]T[Dab][Dab]T; lactam 4-C) | – | – | – | – | – | – | – | – | – | >32 | 8 (≈ 7.13 µM) | >32 | 0.25 (≈ 0.223 µM) | 0.5 (≈ 0.446 µM) | 1 (≈ 0.891 µM) | 4 (≈ 3.56 µM) | 4 (≈ 3.56 µM) | 4 (≈ 3.56 µM)
5 | CCCCCCCC(=O)N[C@@H](CN)C(=O)N[C@H](C(=O)N[C@H](CO)C(=O)N[C@H]1CCNC(=O)[C@H]([C@@H](C)O)NC(=O)[C@H](CCN)NC(=O)[C@H](CCN)NC(=O)[C@H]([C@@H](C)O)NC(=O)[C@@H](CC(C)C)NC(=O)[C@H](CCN)NC1=O)[C@@H](C)O [Compound 13] (Octanoyl-[Dap]T[dS][Dab][Dab][dL]T[Dab][Dab]T; lactam 4-C) | 4 (≈ 3.58 µM) | 4 (≈ 3.58 µM) | >32 | 0.25 (≈ 0.224 µM) | 0.25 (≈ 0.224 µM) | 0.5 (≈ 0.448 µM) | 1 (≈ 0.896 µM) | 1 (≈ 0.896 µM) | 0.5 (≈ 0.448 µM) | – | – | – | – | – | – | – | – | –
6 | CCCCCCCC(=O)N[C@@H](CCCN)C(=O)N[C@H](C(=O)N[C@H](CO)C(=O)N[C@H]1CCNC(=O)[C@H]([C@@H](C)O)NC(=O)[C@H](CCN)NC(=O)[C@H](CCN)NC(=O)[C@H]([C@@H](C)O)NC(=O)[C@@H](CC(C)C)NC(=O)[C@H](CCN)NC1=O)[C@@H](C)O [Compound 14] (Octanoyl-[Orn]T[dS][Dab][Dab][dL]T[Dab][Dab]T; lactam 4-C) | >32 | 8 (≈ 6.99 µM) | >32 | 0.25 (≈ 0.218 µM) | 0.5 (≈ 0.437 µM) | 4 (≈ 3.5 µM) | 8 (≈ 6.99 µM) | 16 (≈ 14 µM) | 4 (≈ 3.5 µM) | – | – | – | – | – | – | – | – | –
7 | CCCCCCCC(=O)N[C@@H](CCN)C(=O)N[C@H](C(=O)N[C@@H](C(=O)N[C@H]1CCNC(=O)[C@H]([C@@H](C)O)NC(=O)[C@H](CCN)NC(=O)[C@H](CCN)NC(=O)[C@H]([C@@H](C)O)NC(=O)[C@@H](CC(C)C)NC(=O)[C@H](CCN)NC1=O)[C@H](C)O)[C@@H](C)O [Compound 15] (Octanoyl-[Dab]T[dT][Dab][Dab][dL]T[Dab][Dab]T; lactam 4-C) | 16 (≈ 14 µM) | 16 (≈ 14 µM) | >32 | 1 (≈ 0.874 µM) | 2 (≈ 1.75 µM) | 1 (≈ 0.874 µM) | 0.5 (≈ 0.437 µM) | 2 (≈ 1.75 µM) | 1 (≈ 0.874 µM) | – | – | – | – | – | – | – | – | –
8 | CCCCCCC(=O)N[C@@H](CCN)C(=O)N[C@H](C(=O)N[C@H](CO)C(=O)N[C@H]1CCNC(=O)[C@H]([C@@H](C)O)NC(=O)[C@H](CCN)NC(=O)[C@H](CCN)NC(=O)[C@H]([C@@H](C)O)NC(=O)[C@@H](CC(C)C)NC(=O)[C@H](CCN)NC1=O)[C@@H](C)O [Compound 16] (Heptanoyl-[Dab]T[dS][Dab][Dab][dL]T[Dab][Dab]T; lactam 4-C) | 4 (≈ 3.58 µM) | 4 (≈ 3.58 µM) | >32 | 0.5 (≈ 0.448 µM) | 0.25 (≈ 0.224 µM) | 0.25 (≈ 0.224 µM) | 0.5 (≈ 0.448 µM) | 2 (≈ 1.79 µM) | 2 (≈ 1.79 µM) | – | – | – | – | – | – | – | – | –
9 | CCCCCCCCC(=O)N[C@@H](CCN)C(=O)N[C@H](C(=O)N[C@H](CO)C(=O)N[C@H]1CCNC(=O)[C@H]([C@@H](C)O)NC(=O)[C@H](CCN)NC(=O)[C@H](CCN)NC(=O)[C@H]([C@@H](C)O)NC(=O)[C@@H](CC(C)C)NC(=O)[C@H](CCN)NC1=O)[C@@H](C)O [Compound 17] (Nonanoyl-[Dab]T[dS][Dab][Dab][dL]T[Dab][Dab]T; lactam 4-C) | 2 (≈ 1.75 µM) | 4 (≈ 3.5 µM) | 16 (≈ 14 µM) | 0.25 (≈ 0.218 µM) | 0.25 (≈ 0.218 µM) | 0.5 (≈ 0.437 µM) | <0.125 | <0.125 | 0.25 (≈ 0.218 µM) | – | – | – | – | – | – | – | – | –
10 | CCCCCCCCCCCC(=O)N[C@@H](CCN)C(=O)N[C@H](C(=O)N[C@@H](CCN)C(=O)N[C@H]1CCNC(=O)[C@H]([C@@H](C)O)NC(=O)[C@H](CCN)NC(=O)[C@H](CCN)NC(=O)[C@H]([C@@H](C)O)NC(=O)[C@@H](CC(C)C)NC(=O)[C@H](CCN)NC1=O)[C@@H](C)O [Compound 28] (Lauroyl-[Dab]T[Dab][Dab][Dab][dL]T[Dab][Dab]T; lactam 4-C) | 2 (≈ 1.67 µM) | 4 (≈ 3.33 µM) | 4 (≈ 3.33 µM) | 0.5 (≈ 0.417 µM) | 0.5 (≈ 0.417 µM) | 0.5 (≈ 0.417 µM) | 2 (≈ 1.67 µM) | 2 (≈ 1.67 µM) | 1 (≈ 0.834 µM) | – | – | – | – | – | – | – | – | –
11 | CCCCCCCC(=O)N[C@@H](CN)C(=O)N[C@H](C(=O)N[C@@H](CCN)C(=O)N[C@H]1CCNC(=O)[C@H]([C@@H](C)O)NC(=O)[C@H](CCN)NC(=O)[C@H](CCN)NC(=O)[C@H]([C@@H](C)O)NC(=O)[C@@H](CC(C)C)NC(=O)[C@H](CCN)NC1=O)[C@@H](C)O [Compound 31] (Octanoyl-[Dap]T[Dab][Dab][Dab][dL]T[Dab][Dab]T; lactam 4-C) | 0.5 (≈ 0.443 µM) | 0.5 (≈ 0.443 µM) | 16 (≈ 14.2 µM) | <0.125 | 0.25 (≈ 0.221 µM) | 0.5 (≈ 0.443 µM) | 4 (≈ 3.54 µM) | 4 (≈ 3.54 µM) | 2 (≈ 1.77 µM) | – | – | – | – | – | – | – | – | –
